# In patent US8389268B2, “Method and culture medium for enhanced detection of mycobacterium” (priority 2009, dated 2013):
# Values joined by “and” are separate entries in the source; they are usually repeats but may differ in a detail not shown here. Equal values may be shown once. Read-outs that look alike come from different tables or passages of the source.
# Legend:
# [1] = system: M. avium 25291; test: Time to detection (TTD) of growth in BacT/ALERT MP culture bottles; assay type: cell-based, Mycobacterium avium; conditions: for # Positive: of 4.0 tested
# [2] = system: M. intracellulare 13950; test: as above; assay type: cell-based, Mycobacterium intracellulare; conditions: for # Positive: of 4.0 tested
# [3] = system: M. kansasii 12478; test: as above; assay type: cell-based, Mycobacterium kansasii; conditions: for # Positive / # Positives: of 4.0 tested
# [4] = system: M. scrofulaceum 19981; test: as above; assay type: cell-based, Mycobacterium scrofulaceum
# [5] = system: MTB 25177; test: as above; assay type: cell-based, Mycobacterium tuberculosis; conditions: for # Positive: of 4.0 tested
# Method: For Growth Performance, […] organisms (M. tuberculosis, M. avium, and M. intracellulare) were tested. The conventional MAS formulation was used for these experiments. The new supplement with/without FA supplementation and conventional/old RF were used to rehydrate a lyophilized powder of the conventional or old MB BacT antibiotic supplement (conventional/old MAS) (bioMérieux, Inc.).
# For the new supplement, the new, autoclavable BacT/ALERT® MP bottle (as described hereinabove) was used and for conventional/old RF, the conventional/old MP bottle was used. Before the inoculation of new and conventional/old MP culture bottles (bioMérieux, Inc.) with mycobacteria cultures, 0.5 ml of new supplement with/without FA or 0.5 ml of conventional/old RF were added to one set of the BacT/ALERT® MP culture bottles. The rehydrated conventional MAS (using new supplement with/without FA and conventional/old RF) was added to the second set of MP culture bottles. The growth (as TTD of growth) was compared in these bottles for Mycobacterium avium, Mycobacterium intracellulare and Mycobacterium tuberculosis cultures after inoculating with approximately 0.5×10^3 CFU/ml.
# For the new MAS formulas and NS, a new, autoclaved BacT/ALERT® MP bottle (as described hereinabove) was used and for conventional/old RF, conventional/old MP bottle (bioMérieux, Inc.) was used. […] The conventional MAS (using conventional/old RF) and new MAS formulas (using NS) were added to the second set of MP culture bottles.
# The mycobacteria inoculum was 0.5×10^3 CFU/ml.
# [6] = system: MTB 27294; test: as above; assay type: cell-based, Mycobacterium tuberculosis; conditions: for # Positive: of 4.0 tested
# [7] = system: mycobacteria; assay type: cell-based, Mycobacterium species
# [8] = system: M. fortuitum 6841; test: Time to detection (TTD) of growth in BacT/ALERT MP culture bottles; conditions: for # Positive / # Positives: of 4.0 tested
# [9] = system: contaminating respiratory flora (CRF); test: Suppression of contaminating respiratory flora (CRF), growth or no growth in BacT/ALERT MP culture bottles; assay type: cell-based, gram positive or gram negative bacterial and yeast cultures; conditions: screen of various drugs
compound,measurement,setting,value
"CC1(C)S[C@@H]2[C@H](NC(=O)[C@H](NC(=O)N3CCNC3=O)c3ccccc3)C(=O)N2[C@H]1C(=O)O [AZL, azlocillin]",Average TTD,"[1]; Table 4, Media + AZL 12",20.1 days
same,# Positive,"[1]; Table 4, Media + AZL 12",4.0
same,Average TTD,"[1]; Table 4, Media + AZL 24",22.2 days
same,# Positive,"[1]; Table 4, Media + AZL 24",4.0
same,Average TTD,"[1]; Table 4, Media + AZL 48",21.2 days
same,# Positive,"[1]; Table 4, Media + AZL 48",4.0
same,Average TTD,"[2]; Table 4, Media + AZL 12",16.4 days
same,# Positive,"[2]; Table 4, Media + AZL 12",4.0
same,Average TTD,"[2]; Table 4, Media + AZL 24",19.8 days
same,# Positive,"[2]; Table 4, Media + AZL 24",4.0
same,Average TTD,"[2]; Table 4, Media + AZL 48",20.0 days
same,# Positive,"[2]; Table 4, Media + AZL 48",2.0
same,Average TTD,"[3]; Table 4, Media + AZL 12",18.5 days
same,# Positive,"[3]; Table 4, Media + AZL 12",3.0
same,Average TTD,"[3]; Table 4, Media + AZL 24",18.9 days
same,# Positive,"[3]; Table 4, Media + AZL 24",4.0
same,Average TTD,"[3]; Table 4, Media + AZL 48",20.5 days
same,# Positive,"[3]; Table 4, Media + AZL 48",1.0
same,Average TTD,"[4]; Table 4, Media + AZL 12",24.2 days
same,# Positive,"[4]; Table 4, Media + AZL 12, of 4.0 tested",2.0
same,Average TTD,"[4]; Table 4, Media + AZL 48",21.7 days
same,# Positive,"[4]; Table 4, Media + AZL 48, of 3.0 tested",1.0
same,Average TTD,"[5]; Table 4, Media + AZL 12",22.4 days
same,# Positive,"[5]; Table 4, Media + AZL 12",4.0
same,Average TTD,"[5]; Table 4, Media + AZL 24",23.8 days
same,# Positive,"[5]; Table 4, Media + AZL 24",2.0
same,Average TTD,"[5]; Table 4, Media + AZL 48",24.8 days
same,# Positive,"[5]; Table 4, Media + AZL 48",2.0
same,Average TTD,"[6]; Table 4, Media + AZL 12",15.4 days
same,# Positive,"[6]; Table 4, Media + AZL 12",4.0
same,Average TTD,"[6]; Table 4, Media + AZL 24",16.0 days
same,# Positive,"[6]; Table 4, Media + AZL 24",4.0
same,Average TTD,"[6]; Table 4, Media + AZL 48",15.4 days
same,# Positive,"[6]; Table 4, Media + AZL 48",4.0
same,effect on growth (as determined by TTD of growth),[7],negative effect on the growth
same,Average TTD,"[8]; Table 4, Media + AZL 12",4.0 days
same,# Positive,"[8]; Table 4, Media + AZL 12",4.0
same,Average TTD,"[8]; Table 4, Media + AZL 24",4.2 days
same,# Positive,"[8]; Table 4, Media + AZL 24",4.0
same,Average TTD,"[8]; Table 4, Media + AZL 48",4.1 days
same,# Positive,"[8]; Table 4, Media + AZL 48",4.0
N=C(N)NCCC[C@H](N)C(=O)O [L-arginine],reduction in TTD,[7],did not show a reduction in TTD
O=C(O)C[C@H](O)C(=O)O [L-malate],reduction in TTD,[7],did not show a reduction in TTD
"CN[C@H](CC(C)C)C(=O)N[C@H]1C(=O)N[C@@H](CC(N)=O)C(=O)N[C@H]2C(=O)N[C@H]3C(=O)N[C@H](C(=O)N[C@H](C(=O)O)c4cc(O)cc(O)c4-c4cc3ccc4O)[C@H](O)c3ccc(c(Cl)c3)Oc3cc2cc(c3O[C@@H]2O[C@H](CO)[C@@H](O)[C@H](O)[C@H]2O[C@H]2C[C@](C)(N)[C@H](O)[C@H](C)O2)Oc2ccc(cc2Cl)[C@H]1O [VAN, vancomycin]",# Positives,[1],4.0 and 3.0
same,Average TTD,[1],20.6 days and 21.2 days
same,# Positives,[2],4.0
same,Average TTD,[2],9.4 days and 9.7 days and 10.3 days
same,# Positives,"[3]; Table 5, Media + VAN 1.75",4.0
same,Average TTD,"[3]; Table 5, Media + VAN 3.5",21.5 days
same,# Positives,"[3]; Table 5, Media + VAN 3.5",2.0
same,Average TTD,"[4]; Table 5, Media + VAN 1.75",14.2 days
same,# Positives,"[4]; Table 5, Media + VAN 1.75, of 4.0 tested",4.0
same,Average TTD,"[4]; Table 5, Media + VAN 3.5",14.0 days
same,# Positives,"[4]; Table 5, Media + VAN 3.5, of 4.0 tested",4.0
same,Average TTD,"[4]; Table 5, Media + VAN 7",15.3 days
same,# Positives,"[4]; Table 5, Media + VAN 7, of 1.0 tested",1.0
same,# Positives,[5],2.0
same,Average TTD,[5],23.7 days
same,# Positives,[6],4.0
same,Average TTD,[6],16.3 days and 16.0 days and 18.3 days
same,effect on growth (as determined by TTD of growth),[7],negative effect on the growth
same,Average TTD,"[8]; Table 5, Media + VAN 1.75",4.7 days
same,# Positives,"[8]; Table 5, Media + VAN 1.75",4.0
same,Average TTD,"[8]; Table 5, Media + VAN 3.5",4.1 days
same,# Positives,"[8]; Table 5, Media + VAN 3.5",4.0
same,Average TTD,"[8]; Table 5, Media + VAN 7",4.8 days
same,# Positives,"[8]; Table 5, Media + VAN 7",4.0
C[C@@H]1O[C@@H]1P(=O)(O)O [fosfomycin],ability to suppress contaminating respiratory flora (CRF),[9],best choice for suppression of CRF
CC(O)C(=O)O (centres unmarked) [lactate],reduction in TTD,[7],did not show a reduction in TTD
O=C(O)CC(=O)C(=O)O [oxaloacetic acid],reduction in TTD,[7],did not show a reduction in TTD
"O=C(O)CCC(=O)C(=O)O [α-keto glutarate, α-ketoglutarate]",Avg. TTD,[1],13.5 days and 13.8 days
same,No. of positives,[1],3
same,Avg. TTD,[2],9.0 days and 8.8 days
same,No. of positives,[2],3
same,Avg. TTD,[6],14.3 days and 13.9 days
same,No. of positives,[6],3
same,reduction in time to detection (TTD) of growth,[7],approximate two days reduction
